Test [1] concerns C1S mRNA. The experiment in a line: Complement gene mRNA expression, TaqMan real-time PCR, Huh-7 cells. The class given is cell-based. The conditions noted are these: Homo sapiens; Huh-7, 48 h treatment; read-out: C1S (48 h) mRNA, half maximal inhibitory concentration (IC50). An excerpt: (§1) In this example, mRNA levels from cultured cells were quantitated. The assay can be used to determine the effect of compound(s) on regulating mRNA levels, including those compounds in the present invention. Complement genes are expressed at high endogenous levels, but their expression can also be stimulated with various cytokines in inflammatory conditions. Experiments in this example target both basal and inflammatory complement gene expression. Compound mediated changes in gene expression and resulting mRNA levels are presented in Tables 2, 3 and 4 as well as FIGS. 1, 2, 3 and 4 below.
(§2) Huh-7 and HepG2 cells are liver-derived cell lines and are models for what can occur in the liver. Huh-7 cells (JCRB Cell Bank) were introduced to 96-well plates (^˜2.5×10^5 per well) in 100 μL DMEM containing 10% (v/v) FBS, 100 U/mL penicillin, 100 ug/mL streptomycin and 5 ug/mL plasmocin (all reagents from Gibco, except for the former, which was obtained from Invivogen). After 24 h, Huh-7 cells were treated with compounds in the same media formulation used for plating, and supplemented with 0.1% DMSO for the amount of time indicated in tables 2, 3, and 4. For select experiments, 24 h post-plating, cells were treated with cytokines and the compound of interest simultaneously, for a total treatment time of 48 h. Alternatively, 24 h after plating, cells were pre-treated with cytokines for 24 h before adding the compound of interest for 48 h. HepG2 cells (ATCC) were cultured in 96-well plates (^˜2.5×10^5 per well) in MEM containing 10% FBS, 1× non-essential amino acids, 1 mM sodium pyruvate, 2 mM L-glutamine, 100 U/mL penicillin, 100 ug/mL streptomycin and 5 ug/mL plasmocin. Serum amount was reduced to 0.5% for treatments with compound or cytokines. Timing of treatment of HepG2 cells with compounds and cytokines was as described for Huh-7 cells. Primary human hepatocytes (CellzDirect/Life Technologies) were plated in collagen coated 96-well plates at 70 000 cells/well, then overlaid with Matrigel™ as recommended by the supplier. Cells were treated with compounds of interest and/or cytokines for the indicated time points in the recommended media supplemented with 0.1% DMSO and 10% FBS (v/v). Cells were harvested by mRNA Catcher PLUS Kit (Life Technologies) followed by real-time PCR using the RNA UltraSense One-Step qRT-PCR System. The level of the mRNA of interest was measured by TaqMan real-time PCR relative to the endogenous control cyclophilin A in the same sample. […]
(§3) Downregulation of expression of components of the complement cascade will result in reduced activity of the pathway and thus will constitute a positive result. […] Table 4 lists the maximum reduction in the indicated mRNA measured in primary human hepatocytes treated with compounds for up to 72 hours. […]
For orientation: Quantitative PCR measures a nucleic acid by following its amplification.

The subject of test [2] is MBL2 mRNA. The description is as above. The class given is cell-based. The conditions noted are these: Homo sapiens; Huh-7, 48 h treatment; read-out: MBL2 (48 h) mRNA, half maximal inhibitory concentration (IC50).
Source text: as §1, §2, §3

Test [3] relates to C4a/C4b mRNA. Put plainly: Complement gene mRNA expression, TaqMan real-time PCR, HepG2 cells. The class given is cell-based, human. The following applies: for IC50: Homo sapiens, HepG2, 72 h, read-out: C4a/C4b (72 h) mRNA, half maximal inhibitory concentration (IC50).
Source text: as §1
Huh-7 and HepG2 cells are liver-derived cell lines and are models for what can occur in the liver. Huh-7 cells (JCRB Cell Bank) were introduced to 96-well plates (^˜2.5×10^5 per well) in 100 μL DMEM containing 10% (v/v) FBS, 100 U/mL penicillin, 100 ug/mL streptomycin and 5 ug/mL plasmocin (all reagents from Gibco, except for the former, which was obtained from Invivogen). After 24 h, Huh-7 cells were treated with compounds in the same media formulation used for plating, and supplemented with 0.1% DMSO for the amount of time indicated in tables 2, 3, and 4. For select experiments, 24 h post-plating, cells were treated with cytokines and the compound of interest simultaneously, for a total treatment time of 48 h. Alternatively, 24 h after plating, cells were pre-treated with cytokines for 24 h before adding the compound of interest for 48 h. HepG2 cells (ATCC) were cultured in 96-well plates (^˜2.5×10^5 per well) in MEM containing 10% FBS, 1× non-essential amino acids, 1 mM sodium pyruvate, 2 mM L-glutamine, 100 U/mL penicillin, 100 ug/mL streptomycin and 5 ug/mL plasmocin. Serum amount was reduced to 0.5% for treatments with compound or cytokines. Timing of treatment of HepG2 cells with compounds and cytokines was as described for Huh-7 cells. Primary human hepatocytes (CellzDirect/Life Technologies) were plated in collagen coated 96-well plates at 70 000 cells/well, then overlaid with Matrigel™ as recommended by the supplier. Cells were treated with compounds of interest and/or cytokines for the indicated time points in the recommended media supplemented with 0.1% DMSO and 10% FBS (v/v). Cells were harvested by mRNA Catcher PLUS Kit (Life Technologies) followed by real-time PCR using the RNA UltraSense One-Step qRT-PCR System. The level of the mRNA of interest was measured by TaqMan real-time PCR relative to the endogenous control cyclophilin A in the same sample. Data were acquired using the ViiA-7 Real Time PCR System (Applied Biosystems).
Downregulation of expression of components of the complement cascade will result in reduced activity of the pathway and thus will constitute a positive result. Tables 2 and 3 list the concentration of compounds at which the level of the indicated mRNA is reduced by 50%, as well as the duration of treatment with compound. Table 4 lists the maximum reduction in the indicated mRNA measured in primary human hepatocytes treated with compounds for up to 72 hours. FIGS. 1, 2, 3 and 4 show effects of compounds on cytokine-induced (i.e. inflammatory) expression of complement genes in Huh-7 cells and HepG2 cells.

Test [4] has as its system C1S mRNA. The test is described as above. It counts as cell-based. The following applies: Homo sapiens; HepG2, 48 h treatment; read-out: C1S (48 h) mRNA, half maximal inhibitory concentration (IC50).
Source text: as §1, §2, §3

The test system of test [5] is MBL2 mRNA. The description is as above. The class given is cell-based. The following applies: Homo sapiens; HepG2, 48 h treatment; read-out: MBL2 (48 h) mRNA, half maximal inhibitory concentration (IC50).
Source text: as §1, §2, §3

The subject of test [6] is complement C3 protein. Put plainly: Secreted complement protein ELISA, Huh-7 cells. It counts as cell-based, human. The conditions noted are these: for C3 secretion, percent maximum reduction in protein levels: Huh-7, 72 h, ± standard deviation. How it is done: (§4) In this example, protein secretion from cells grown in culture in the presence of compound of interest was analyzed by enzyme linked immunosorbent assay (ELISA). In some cases, cultured cells were treated with cytokines and the compound of interest to mimic an inflammatory state. The method can be used to determine the effect of compounds, including those in the present invention, on the secretion of specific proteins from cells grown in culture under basal and cytokine stimulated (i.e. inflammatory) conditions (Table 7, FIGS. 5 and 6).
(§5) Huh-7 cells (JCRB Cell Bank) were introduced to 24-well plates in 500 μL DMEM supplemented with 10% (v/v) FBS, 100 U/mL penicillin, 100 ug/mL streptomycin and 5 ug/mL plasmocin (all reagents from Gibco, except for the former, which comes from Invivogen) at 200 000 cells/well. After 24 h, cells were treated with the compound of interest and/or cytokines in DMEM with 10% FBS containing 0.1% DMSO for a total treatment time of 72 h. Fresh media containing compounds and/or cytokines was introduced in the final 24 h of the experiment. At harvest, media were collected, debris was removed by brief centrifugation, and ELISA assays for the indicated proteins were performed as per the manufacturer's protocol. To correct for differences in cell numbers, values obtained for complement proteins were normalized to values for transferrin. HepG2 cells (ATCC) were cultured in MEM containing 10% FBS, 1× non-essential amino acids, 1 mM sodium pyruvate, 2 mM L-glutamine, 100 U/mL penicillin, 100 ug/mL streptomycin and 5 ug/mL plasmocin. Serum amount was reduced to 0.5% when compounds were present. Treatment combinations and timing were as described above for Huh-7 cells. Primary human hepatocytes (CellzDirect/Life Technologies) were plated in collagen coated 96-well plates at 70 000 cells/well, then overlaid with Matrigel™ as recommended by the supplier. Cells were treated with compounds of interest with or without the indicated cytokines for a total of 72 h in the recommended media supplemented with 10% FBS and 0.1% DMSO (v/v). Media were collected for measurements of secreted proteins.
(§6) The ELISA kits for detection of complement C3, C4, C5 and C9 were obtained from AssayPro (St. Charles, Mo.), while the ELISA reagents for transferrin detection were from Bethyl Laboratories (Montgomery, Tex.). Data were collected on a Thermo Scientific Multiskan GO apparatus. Downregulation of expression of components of the complement cascade will result in reduced activity of the pathway and thus will constitute a positive result.
In general terms: An ELISA detects its analyte on a solid surface through an enzyme-linked reagent.

In test [7] the test system is complement C4 protein. Put plainly: Secreted complement protein ELISA, Huh-7 cells. The class given is cell-based, human. The conditions noted are these: for C4 secretion, percent maximum reduction in protein levels: Huh-7, 72 h, ± standard deviation. The method, then: as §4, §5, §6
Test [8] concerns complement C5 protein. The experiment in a line: Secreted complement protein ELISA, Huh-7 cells. The class given is cell-based, human. The following applies: for C5 secretion, percent maximum reduction in protein levels: Huh-7, 72 h, ± standard deviation. The method, then:
as §4, §5, §6

Where [9] appears, read: 30 uM, Huh-7 treated simultaneously with IL-6.

In the case of `COc1cc(OC)c2c(=O)[nH]c(-c3cc(C)c(OCCO)c(C)c3)nc2c1` [RVX000222, 2-(4-(2-hydroxyethoxy)-3,5-dimethylphenyl)-5,7-dimethoxyquinazolin-4(3H)-one], the IC50 in test [1] was 18900 nM; in test [2] it was 16300 nM; in test [3], 10000 nM; in test [4], 9560 nM; in test [5], 3880 nM. In addition, in test [3] (HepG2 pre-treated with cytokines), the “expression of complement component 4 at the mRNA level (FIG. 4)” value is “reduces expression”. Also, the “expression of complement component 4 at the mRNA level (FIG. 2)” value in test [3] (HepG2 treated simultaneously with cytokines) is given as “reduces expression”. Moreover, the “C3 secretion, percent maximum reduction in protein levels” value in test [6] (30 uM) came to 87 ± 9%. Moreover, in test [6] (setting [9]), the “secretion of C3 protein (FIG. 5)” value is given as “reduces secretion”. Further, the “C4 secretion, percent maximum reduction in protein levels” value in test [7] (30 uM) came to 79 ± 3%. For the same compound, in test [7] (setting [9]), the “secretion of C4 protein (FIG. 5)” value was “reduces secretion”. The “C5 secretion, percent maximum reduction in protein levels” value in test [8] (30 uM) is 53 ± 7%. In addition, the “secretion of C5 protein (FIG. 5)” value in test [8] (setting [9]) is on record as “reduces secretion”.

As for `Cc1sc2c(c1C)C(c1ccc(Cl)cc1)=N[C@@H](CC(=O)OC(C)(C)C)c1nnc(C)n1-2` [JQ1, (S)-tert-butyl 2-(4-(4-chlorophenyl)-2,3,9-trimethyl-6H-thieno[3,2-f][1,2,4]triazolo[4,3-a][1,4]diazepin-6-yl)acetate, reference compound], the IC50 in test [1] was 300 nM; in test [2], 160 nM; in test [3], 250 nM; in test [4], 120 nM; in test [5], 30 nM. Also, in test [6] (0.75 uM), the “C3 secretion, percent maximum reduction in protein levels” value was 99 ± 1%. Also, the “C4 secretion, percent maximum reduction in protein levels” value in test [7] (0.75 uM) was found to be 81 ± 6%. The “C5 secretion, percent maximum reduction in protein levels” value in test [8] (0.75 uM) turned out to be 50 ± 13%.

The record behind these values is patent publication US10111885B2, “Compositions and therapeutic methods for the treatment of complement-associated diseases” (Resverlogix Corp., priority 2015, dated 2018).
